Assay results: patent US20110136777A1, “CRYSTALLINE SODIUM SALT OF CEPHALOSPORIN ANTIBIOTIC” (Orchid Chemicals and Pharmaceuticals Limited, priority 2008, published 2011)
Read-outs that look alike come from different tables or passages of the source.

Tests used:
[1] = Stability at 40 ± 2° C. & 75 ± 5% RH; type: physicochemical; settings: for Assay: in % (unit assumed)
Procedure: (§1) In still another embodiment of the present invention, novel anhydrous crystalline polymorph of Ceftiofur sodium (Form A) of formula (I) having the following X-ray diffraction characteristic peaks (±0.2°2θ): 5.68, 6.54, 8.84, 12.82, 13.16, 16.33, 17.36, 18.71, 18.94, 20.25, 21.53, 22.11, 22.79, 24.44, 24.88, 25.46, and 27.00 in °2θ. The anhydrous crystalline Ceftiofur sodium of the present invention has moisture content in the range of 0.4 to 2.0%. The anhydrous Ceftiofur sodium (Form A) is prepared by drying the Ceftiofur sodium either under vacuum or under normal pressure at a temperature in the range of 60-125° C. till the moisture content reaches 0.4 to 2.0%. The moisture content of Ceftiofur sodium is measured by using Karl-Fisher technique. The following tables (Table 2 & 3) provide stability data of anhydrous crystalline Ceftiofur Sodium (Form A) prepared according to this invention. From this table it is evident that the anhydrous crystalline Ceftiofur Sodium prepared according this invention is very stable and highly pure, which is clearly indicated by total RS (Related substances) analysis & the stability data.

[2] = Stability at 25 ± 2° C. & 60 ± 5% RH; type: physicochemical; settings: for Assay: in % (unit assumed)
Procedure: as §1

[3] = Hygroscopic nature of the solid; type: physicochemical
Tapped bulk density = type: physicochemical
[4] = Stability over shelf life (statement in words); settings: over the shelf life period

`CO/N=C(\C(=O)N[C@@H]1C(=O)N2C(C(=O)[O-])=C(CSC(=O)c3ccco3)CS[C@H]12)c1csc(N)n1.[Na+]` [Form A, Ceftiofur sodium] gave a Moisture Content ([1]; 3 Months) of 1.08%, a Total RS (Related substances) ([1]; 3 Months) of 0.19% and an Assay ([1]; 3 Months) of 98.14. The Moisture Content ([1]; 6 month) was 1.54%, the Total RS (Related substances) ([1]; 6 month) was 0.33% and the Assay ([1]; 6 month) was 98.64. It also gave a Moisture Content ([1]; Initial) of 1.05%, a Total RS (Related substances) ([1]; Initial) of 0.15% and an Assay ([1]; Initial) of 99.74. For the same compound, the Moisture Content ([2]; 3 Months) was 1.05%, the Total RS (Related substances) ([2]; 3 Months) was 0.16% and the Assay ([2]; 3 Months) was 98.84. The Moisture Content ([2]; 6 month) was 1.11%, the Total RS (Related substances) ([2]; 6 month) was 0.21% and the Assay ([2]; 6 month) was 99.47. It also gave a Moisture Content ([2]; Initial) of 1.05%, a Total RS (Related substances) ([2]; Initial) of 0.15% and an Assay ([2]; Initial) of 99.74. The “Nature (hygroscopicity)” value [3] was “Non-Hygroscopic”, the “Nature (hygroscopicity)” value ([3]; listed as anhydrous crystalline Ceftiofur sodium) was “non-hygroscopic” and the “Tapped Bulk density” value (Tapped bulk density) was 0.7 g/mL. The Stability [4] was “good”.
For `CO/N=C(\C(=O)N[C@@H]1C(=O)N2C(C(=O)[O-])=C(CSC(=O)c3ccco3)CS[C@H]12)c1csc(N)n1.[Na+]` [Amorphous, Ceftiofur sodium, reference compound], the “Nature (hygroscopicity)” value ([3]; listed as conventional amorphous Ceftiofur sodium) was “highly hygroscopic”, the “Tapped Bulk density” value (Tapped bulk density) was 0.5 g/mL and the Stability ([4]; listed as amorphous Ceftiofur sodium) was “less stable”.
